From patent US4008331A, “Antidepressant 1,1a,6,10b-tetrahydrodibenzo-[a,e]-cyclopropa-[c]-cyclohepten-6-substitu ted oximes” (E. I. Du Pont de Nemours and Company, priority 1976, dated 1977)
Counter-ions that a name gives are not always drawn. Like-named read-outs stand apart in the source and are kept apart here. Blank lines part the entries; values can stand above or below the compound they belong to.

Key:
[1] = system: tetrabenazine-induced depression in mice; assay: Antagonism of tetrabenazine-induced sedation and depression in mice, orally at 1 hour post-drug; format: in vivo, Carworth CF1 S female mice; conditions: for ED50: Mus musculus, po, 1 h
Protocol: Relief from ptosis was recorded when exactly 2 seconds after placing the mouse facing the observer, lid closure was less than 50% in both eyes.

[2] = Hydrolytic stability in 0.5M hydrochloric acid at 25° for 20 hrs (NMR of residue); format: physicochemical
Protocol: For example, a solution of 0.6 g of N-(2-methylaminoethyl)-1,1a,6,10b-tetrahydrodibenzo[a,e]cyclopropa[c]cyclohepten-6-imine in 20 ml of 0.5M hydrochloric acid was stirred at 25° for 20 hrs. The solution was cooled and 10 ml of 10% sodium hydroxide solution was added, and the oil was twice extracted with a solution of 25% methylene chloride in ether. The combined organic extracts were thoroughly washed with saturated brine, dried and solvent removed. The NMR spectrum of the residue (0.5 g) indicated about 40% decomposition of the imine to the ketone occurred.
This stability to hydrolysis is advantageous in preparation, storage, and use of pharmaceutical dosage forms.

[3] = mice, oral, 1 hour post-drug, tetrabenazine 32 mg/kg intraperitoneally 30 minutes after compound, read-out: ED50 for prevention of exploratory loss
[4] = mice, oral, 1 hour post-drug, tetrabenazine 32 mg/kg intraperitoneally 30 minutes after compound, read-out: ED50 for prevention of ptosis
[5] = mice, oral, 1 hour post-drug, tetrabenazine 32 mg/kg intraperitoneally 30 minutes after compound, hydrochloride, 60 min
[6] = mice, oral, 1 hour post-drug, tetrabenazine 32 mg/kg intraperitoneally 30 minutes after compound, 60 min

Structure (SMILES): c1ccc2c(c1)C(=NOCCN1CCCC1)c1ccccc1C1CC21 (centres unmarked)
ED50 [1, 3]: 10.4 mg/kg
ED50 [1, 4]: 4.8 mg/kg

Structure (SMILES): c1ccc2c(c1)C(=NOCCN1CCOCC1)c1ccccc1C1CC21 (centres unmarked)
ED50 [1, 3]: 3 mg/kg
ED50 [1, 4]: 1 mg/kg

Structure (SMILES): c1ccc2c(c1)C(=NOCCN1CCCCC1)c1ccccc1C1CC21 (centres unmarked)
ED50 [1, 3]: 4.7 mg/kg
ED50 [1, 4]: 1.7 mg/kg

Structure (SMILES): CN(C)CCCON=C1c2ccccc2C2CC2c2ccccc21 (centres unmarked) [H CH2 CH2 CH2 N(CH3)2, 1,1a,6,10b-Tetrahydrodibenzo[a,e]cyclopropa[c]cyclohepten-6-one 0-[3-(dimethylamino)propyl]oxime]
ED50 [1, 3]: 15.6 mg/kg
ED50 [1, 4]: 9 mg/kg

Structure (SMILES): CN(C)CCON=C1c2ccccc2C2CC2c2ccccc21 (centres unmarked) [H CH2 CH2 N(CH3)2 . HCl, 1,1a,6,10b-Tetrahydrodibenzo[a,e]cyclopropa[c]cyclohepten-6-one 0-[2-(dimethylamino)ethyl]oxime hydrochloride]
ED50 for prevention of exploratory loss [1, 5]: 1.4 mg/kg
ED50 for prevention of ptosis [1, 5]: 0.5 mg/kg

Structure (SMILES): CN(C)CCON=C1c2ccccc2C2CC2c2ccccc21 (centres unmarked) [H CH2 CH2 N(CH3)2, 1,1a,6,10b-Tetrahydrodibenzo[a,e]cyclopropa[c]cyclohepten-6-one 0-[2-(dimethylamino)ethyl]oxime]
ED50 [1, 3]: 2.3 mg/kg
ED50 [1, 4]: 0.4 mg/kg

Structure (SMILES): NCCON=C1c2ccccc2C2CC2c2ccccc21 (centres unmarked) [H CH2 CH2 NH2 . HCl]
ED50 [1, 4]: 0.09 mg/kg
ED50 for prevention of exploratory loss [1, 6]: 0.10 mg/kg

Structure (SMILES): NCCON=C1c2ccccc2C2CC2c2ccccc21 (centres unmarked) [H CH2 CH2 NH2, 1,1a,6,10b-Tetrahydrodibenzo[a,e]cyclopropa[c]cyclohepten-6-one 0-(2-aminoethyl)oxime]
ED50 for prevention of ptosis ([1]; mice, oral, 1 hour post-drug, tetrabenazine 32 mg/kg intraperitoneally 30 minutes after compound): 0.09 mg/kg
ED50 for prevention of exploratory loss [1, 6]: 0.25 mg/kg

decomposition (in words) ([2]; same procedure: 0.5M hydrochloric acid): no detectable decomposition
Structure (SMILES): CNCCON=C1c2ccccc2C2CC2c2ccccc21 (centres unmarked) [H CH2 CH2 NHCH3, 1,1a,6,10b-Tetrahydrodibenzo[a,e]cyclopropa[c]cyclohepten-6-one 0-[2-(methylamino)ethyl]oxime]
ED50 [1, 3]: 1.9 mg/kg
ED50 [1, 4]: 0.33 mg/kg

Structure (SMILES): CC(C)N(CCON=C1c2ccccc2C2CC2c2ccccc21)C(C)C (centres unmarked) [H CH2 CH2 N[CH(CH3)2]2, 1,1a,6,10b-Tetrahydrodibenzo[a,e]cyclopropa[c]cyclohepten-6-one 0-[2-(diisopropylamino)ethyl]oxime]
ED50 [1, 3]: 5.2 mg/kg
ED50 [1, 4]: 3.3 mg/kg

degraded at 20 h ([2]; 0.5 m hcl, 0.6 g in 20 ml of 0.5M hydrochloric acid, by NMR, read-out: decomposition of the imine to the ketone): ~40%
Structure (SMILES): CNCCN=C1c2ccccc2C2CC2c2ccccc21 (centres unmarked) [N-(2-methylaminoethyl)-1,1a,6,10b-tetrahydrodibenzo[a,e]cyclopropa[c]cyclohepten-6-imine, reference compound]

Structure (SMILES): CN(C)CCC=C1c2ccccc2CCc2ccccc21 [amitriptyline, reference compound]
ED50 [1, 3]: 4.7 mg/kg
ED50 [1, 4]: 1.7 mg/kg

Structure (SMILES): CN(C)CCCN1c2ccccc2CCc2ccccc21 [imipramine, reference compound]
ED50 ([1]; read-out: ED50 for prevention of exploratory loss): 3 mg/kg
ED50 ([1]; read-out: ED50 for prevention of ptosis): 2.5 mg/kg
